Test results reported in PMC6151383 (Molecules : A Journal of Synthetic Chemistry and Natural …, 2017).
Values after ≈ are worked out from the molar mass of the structure shown. Where two headings read alike, the source gives them in different places.

Key:
[1] = test system: Staphylococcus epidermidis H 6966/08; assay: Antibacterial microdilution broth MIC, S. epidermidis; assay type: cell-based; settings: Staphylococcus epidermidis, H6966/08; 48 h incubation; read-out: MIC SE 48 h
[2] = test system: ESBL-positive Klebsiella pneumoniae J 14368/08
[3] = test system: Candida tropicalis 156; assay: Antifungal microdilution broth MIC, C. tropicalis; assay type: cell-based; settings: Candida tropicalis, 156; 48 h incubation; read-out: MIC CT 48 h
[4] = test system: Trichophyton interdigitale 445; assay: Antifungal microdilution broth MIC, T. interdigitale; assay type: cell-based
[5] = test system: Lichtheimia corymbifera 272; assay: Antifungal microdilution broth MIC, L. corymbifera; assay type: cell-based; settings: Lichtheimia corymbifera, 272; 48 h incubation; read-out: MIC LC 48 h
[6] = test system: Escherichia coli CCM 4517; assay: Antibacterial microdilution broth MIC, E. coli; assay type: cell-based; settings: Escherichia coli, CCM4517; 48 h incubation; read-out: MIC EC 48 h
[7] = test system: Gram-positive and Gram-negative bacteria; settings: both Gram-positive and Gram-negative bacteria; cited from earlier work
[8] = test system: Aspergillus fumigatus 231; assay: Antifungal microdilution broth MIC, A. fumigatus; assay type: cell-based; settings: Aspergillus fumigatus, 231; 48 h incubation; read-out: MIC AF 48 h
[9] = test system: Staphylococcus aureus CCM 4516/08; assay: Antibacterial microdilution broth MIC, S. aureus; assay type: cell-based; settings: Staphylococcus aureus, CCM4516; 48 h incubation; read-out: MIC SA 48 h
[10] = test system: M. tuberculosis and NTM; assay: Antimycobacterial activity, panel; assay type: cell-based; settings: Mycobacterium tuberculosis
[11] = test system: Mycobacterium avium 330/88; assay: In vitro antimycobacterial MIC, M. avium; assay type: cell-based
[12] = test system: Trichosporon asahii 1188; assay: Antifungal microdilution broth MIC, T. asahii; assay type: cell-based; settings: Trichosporon asahii, 1188; 48 h incubation; read-out: MIC TA 48 h
[13] = test system: Pseudomonas aeruginosa CCM 1961; assay: Antibacterial microdilution broth MIC, P. aeruginosa; assay type: cell-based; settings: Pseudomonas aeruginosa, CCM1961; 48 h incubation; read-out: MIC PA 48 h
[14] = test system: Candida glabrata 20/I; assay: Antifungal microdilution broth MIC, C. glabrata; assay type: cell-based; settings: Nakaseomyces glabratus, 48 h incubation, read-out: MIC CG 48 h
[15] = test system: Klebsiella pneumoniae D 11750/08
[16] = test system: Candida sp.; assay: Selectivity index for Candida sp. (IC50 HepG2/MIC); assay type: cell-based; settings: all Candida species
[17] = test system: M. kansasii 6509/96; assay: In vitro antimycobacterial MIC, M. kansasii clinical isolate; assay type: cell-based; settings: Mycobacterium kansasii
[18] = test system: Enterococcus faecalis J 14365/08; assay: Antibacterial microdilution broth MIC, E. faecalis; assay type: cell-based; settings: Enterococcus faecalis, J14365/08; 48 h incubation; read-out: MIC EF 48 h
[19] = test system: Mycobacterium tuberculosis 331/88 (H37Rv); assay: In vitro antimycobacterial MIC, M. tuberculosis; assay type: cell-based
[20] = test system: Candida albicans ATCC 44859; assay: Antifungal microdilution broth MIC, C. albicans; assay type: cell-based; settings: ATCC44859, 48 h incubation, read-out: MIC CA 48 h
[21] = test system: Mycobacterium kansasii 235/80; assay: In vitro antimycobacterial MIC, M. kansasii 235/80; assay type: cell-based
[22] = test system: Candida krusei E28; assay: Antifungal microdilution broth MIC, C. krusei; assay type: cell-based; settings: Pichia kudriavzevii, E28; 48 h incubation; read-out: MIC CK 48 h

**Q.** Which MIC [1] does the source give for `O=S(=O)(Nc1ncccn1)c1ccc(N=Cc2ccccc2O)cc1` [Compound 2a, 4-[(2-Hydroxybenzylidene)amino]-N-(pyrimidin-2-yl)benzenesulfonamide] here?
**A.** 62.5 µM (≈ 22.1 µg/mL)

**Q.** What about the “MIC KP-E 24 h” value ([2]; 24 h) of the same molecule?
**A.** >500 µM

**Q.** What about the “MIC KP-E 48 h” value ([2]; 48 h) of the same molecule?
**A.** >500 µM

**Q.** What about the MIC [3] of the same molecule?
**A.** > 500 µM

**Q.** And the MIC ([4]; Trichophyton interdigitale, 445, 72 h, read-out: MIC TI 72 h)?
**A.** 125 µM (≈ 44.3 µg/mL)

**Q.** And the MIC ([4]; Trichophyton interdigitale, 445, 120 h, read-out: MIC TI 120 h)?
**A.** 125 µM (≈ 44.3 µg/mL)

**Q.** And the MIC ([4]; Trichophyton interdigitale, 445, read-out: MIC for T. interdigitale)?
**A.** 125 µM (≈ 44.3 µg/mL)

**Q.** What about the MIC [5] of the same molecule?
**A.** > 500 µM

**Q.** And the MIC [6]?
**A.** > 500 µM

**Q.** What about the “minimum inhibitory concentrations (MICs)” value [7] of the same molecule?
**A.** 100 to 250 µg/mL

**Q.** And the MIC [8]?
**A.** > 500 µM

**Q.** What about the MIC [9] of the same molecule?
**A.** 500 µM (≈ 177 µg/mL)

**Q.** And the MIC ([10]; M. tuberculosis and both M. kansasii strains only, read-out: MIC, M. tuberculosis and both M. kansasii strains)?
**A.** ≤ 32 µM

**Q.** What about the MIC ([10]; range over all four mycobacterial strains and incubation times, read-out: MIC, M. tuberculosis and NTM) of the same molecule?
**A.** 8 to 250 µM (≈ 2.84 to 88.6 µg/mL)

**Q.** And the MIC ([11]; 330/88, 336 h, 14 d incubation, read-out: MIC M. avium 330/88 14 d)?
**A.** 125 µM (≈ 44.3 µg/mL)

**Q.** What about the MIC ([11]; 330/88, 504 h, 21 d incubation, read-out: MIC M. avium 330/88 21 d) of the same molecule?
**A.** 250 µM (≈ 88.6 µg/mL)

**Q.** And the MIC [12]?
**A.** > 500 µM

**Q.** And the MIC [13]?
**A.** 500 µM (≈ 177 µg/mL)

**Q.** What about the MIC [14] of the same molecule?
**A.** > 500 µM

**Q.** And the “MIC KP 24 h” value ([15]; 24 h)?
**A.** >500 µM

**Q.** What about the “MIC KP 48 h” value ([15]; 48 h) of the same molecule?
**A.** >500 µM

**Q.** What about the “SI for Candida sp.” value [16] of the same molecule?
**A.** inactive

**Q.** What about the MIC ([17]; 6509/96, 168 h, 7 d incubation, read-out: MIC M. kansasii 6509/96 7 d) of the same molecule?
**A.** 8 µM (≈ 2.84 µg/mL)

**Q.** What about the MIC ([17]; 6509/96, 336 h, 14 d incubation, read-out: MIC M. kansasii 6509/96 14 d) of the same molecule?
**A.** 16 µM (≈ 5.67 µg/mL)

**Q.** What about the MIC ([17]; 6509/96, 504 h, 21 d incubation, read-out: MIC M. kansasii 6509/96 21 d) of the same molecule?
**A.** 32 µM (≈ 11.3 µg/mL)

**Q.** And the MIC [18]?
**A.** 62.5 µM (≈ 22.1 µg/mL)

**Q.** And the MIC ([19]; 336 h, 14 d incubation, read-out: MIC Mtb. 331/88 14 d)?
**A.** 16 µM (≈ 5.67 µg/mL)

**Q.** What about the MIC ([19]; 504 h, 21 d incubation, read-out: MIC Mtb. 331/88 21 d) of the same molecule?
**A.** 32 µM (≈ 11.3 µg/mL)

**Q.** What about the MIC [20] of the same molecule?
**A.** > 500 µM

**Q.** And the MIC ([21]; 235/80, 168 h, 7 d incubation, read-out: MIC M. kansasii 235/80 7 d)?
**A.** 8 µM (≈ 2.84 µg/mL)

**Q.** What about the MIC ([21]; 235/80, 336 h, 14 d incubation, read-out: MIC M. kansasii 235/80 14 d) of the same molecule?
**A.** 16 µM (≈ 5.67 µg/mL)

**Q.** What about the MIC ([21]; 235/80, 504 h, 21 d incubation, read-out: MIC M. kansasii 235/80 21 d) of the same molecule?
**A.** 32 µM (≈ 11.3 µg/mL)

**Q.** And the MIC [22]?
**A.** > 500 µM
